# Reference: US4486411A, “Beta-lactamase inhibiting 6-beta-sulfonyloxypenicillanic acid derivatives” (Pfizer Inc., priority 1981, dated 1984)
# “And” between values parts separate entries of the source, which are not always exact repeats. Equal values may be shown once. Read-outs that look alike come from different tables or passages of the source.
# Key:
# [1] = test system: Enterobacter cloacae; experiment: MIC, brain heart infusion agar dilution; format: cell-based; details: for MIC with Ampicillin / Response with Ampicillin: 1:1 mixture with ampicillin; for MIC: Enterobacter cloacae, 18 h, alone, Table II gives two separate tests
# Description: (§1) The procedure which is followed is the one recommended by the International Collaborative Study on Antibiotic Sensitivity Testing [Ericcson and Sherris, Acta. Pathologica et Microbiologia Scandinav, Supp. 217, Sections A and B: 64-68 (1971)], and employs brain heart infusion (BHI) agar and the inocula replicating device. Overnight growth tubes are diluted 100 fold for use as the standard inoculum (20,000-10,000 cells in approximately 0.002 ml. are placed on the agar surface; 20 ml. of BHI agar/dish). Twelve 2 fold dilutions of the test compound are employed, with initial concentration of the test drug being 200 mcg./ml. Single colonies are disregarded when reading plates after 18 hrs. at 37° C. The susceptibility (MIC) of the test organism is accepted as the lowest concentration of compound capable of producing complete inhibition of growth as judged by the naked eye. The manner in which the said compounds of the formula I increase the effectiveness of a beta-lactam antibiotic can be appreciated by reference to experiments in which the MIC of a given antibiotic alone, and a compound of the formula I alone, are measured. These MIC's are then compared with the MIC values obtained with a combination of the given antibiotic and the compound of the formula I wherein R^1 is hydrogen. […] The MIC values of combinations are measured using the method described by Barry and Sabath in "Manual of Clinical Microbiology", edited by Lenette, Spaulding and Truant, 2nd Edition, 1974, American Society for Microbiology.
# (§2) Results of experiments illustrating that compounds of the formula II enhance the effectiveness of various beta-lactam antibiotics are reported in Tables I and II. […] It is obvious that the combination of compounds of the formula II with beta-lactam antibiotics will show synergistic activity against other bacterial strains, including some freshly isolated in the clinics. Determination of this activity is a matter of routine application of this type of testing.
# [2] = test system: Escherichia coli 129*; experiment: MIC, brain heart infusion agar dilution; format: cell-based; details: for MIC with Ampicillin: 1:1 mixture with ampicillin; for MIC: Escherichia coli, 18 h, read-out: MIC Alone
# Description: as §1, §2
# [3] = test system: Escherichia coli 2*; experiment: MIC, brain heart infusion agar dilution; format: cell-based; details: for MIC with Cefazolin: 1:1 mixture with cefazolin; for MIC: Escherichia coli, 18 h, read-out: MIC Alone
# Description: as §1, §2
# [4] = test system: Escherichia coli 266; experiment: MIC, brain heart infusion agar dilution; format: cell-based; details: for MIC: Escherichia coli, 266, 18 h, alone, Table II gives two separate tests
# Description: as §1, §2
# [5] = test system: Klebsiella pneumonia; experiment: MIC, brain heart infusion agar dilution; format: cell-based; details: for MIC with Ampicillin / Response with Ampicillin: 1:1 mixture with ampicillin; for MIC with Cefazolin / Response with Cefazolin: 1:1 mixture with cefazolin; for MIC: Klebsiella pneumoniae, 18 h, alone, Table II gives two separate tests
# Description: as §1, §2
# [6] = test system: Proteus morgani; experiment: MIC, brain heart infusion agar dilution; format: cell-based; details: for MIC with Ampicillin: 1:1 mixture with ampicillin; for MIC with Cefazolin / Response with Cefazolin: 1:1 mixture with cefazolin; for MIC: 18 h, alone, Table II gives two separate tests
# Description: as §1, §2
# [7] = test system: Pseudomonas aeruginosa; experiment: MIC, brain heart infusion agar dilution; format: cell-based; details: for MIC with Ampicillin: 1:1 mixture with ampicillin; for MIC with Cefazolin: 1:1 mixture with cefazolin; for MIC: Pseudomonas aeruginosa, 18 h, alone, Table II gives two separate tests
# Description: as §1, §2
# [8] = test system: Serratia marcescens; experiment: MIC, brain heart infusion agar dilution; format: cell-based; details: for MIC: Serratia marcescens, 18 h, alone, Table II gives two separate tests
# Description: as §1, §2
# [9] = test system: Staphylococcus aureus 400*; experiment: MIC, brain heart infusion agar dilution; format: cell-based; details: resistant variant
# Description: as §1, §2
# [10] = test system: Staphylococcus aureus 5; experiment: MIC, brain heart infusion agar dilution; format: cell-based; details: for MIC with Ampicillin: 1:1 mixture with ampicillin; for MIC: 18 hrs. at 37° C., Table II gives two separate tests
# Description: as §1, §2
# [11] = biological target: Enterobacter cloacae 67B009 beta-lactamase (Enterobacter cloacae, UniProt P05364); experiment: Inhibition of cell free beta-lactamase (beta-lactam hydrolysis); format: biochemical; details: pH 6.5, 37° C.; for inhibition at 16.5 µM: inhibitor 16.5 μM; for inhibition at 66 µM: inhibitor 66 μM
# Description: (§3) The compounds of the present invention are also evaluated in vitro by their ability to inhibit the hydrolysis of certain beta-lactam antibiotics by beta-lactamase enzymes. The hydrolysis of ampicillin and penicillin G was determined by the microiodometric method of Novick [Biochem. J. 83, 236 (1962)].
# (§4) Cephaloridine hydrolysis was measured by following the decrease in ultraviolet absorbance at 255 nm [O'Callaghan et al., Antimicrob. Agents Chemother. 1968, pp. 57-63 (1969)]. Conditions for both assays were idential: 0.5 M potassium phosphate, pH 6.5 and 37° C. Reactions were initiated by the addition of the cell-free beta-lactamase, except in the case of preincubation experiments in which the inhibitor and enzyme were incubated together in the assay mixture for 10 minutes before initiation of the reaction by addition of substrate. With the cell-free extracts of Staphylococcus aureus, Escherichia coli, Klebsiella pneumoniae and Pseudomonas aeruginosa, the substrate was ampicillin at 33 micro M (13 microg./ml.). Typical specific activities of the beta-lactamase preparations were, respectively, 6,019, 88,970, 260 and 76 micromol/hr. per mg. of protein.
# (§5) Cell-free extracts were prepared by sonic treatment (using three 30-s bursts at 4° C. except for S. aureus, which was broken with a French press) of cultures grown in brain heart infusion on a rotary shaker incubator. For the S. aureus, P. aeruginosa, and E. cloacae strains, de novo synthesis of beta-lactamase was induced by growing a log-phase culture in the presence of a sublethal concentration of penicillin G at 100, 1,000, and 300 microg./ml, respectively, for 2.5 hr.
# [12] = test system: Escherichia coli 51A129 beta-lactamase; experiment: as above; format: biochemical; details: Ampicillin 33 μM, pH 6.5, 37° C.
# Description: as §3, §4, §5
# [13] = test system: Klebsiella pneumoniae 53A129 beta-lactamase; experiment: as above; format: biochemical; details: Ampicillin 33 μM, pH 6.5, 37° C.
# Description: as §3, §4, §5
# [14] = biological target: T1, Pseudomonas aeruginosa 52A104 beta-lactamase (Pseudomonas aeruginosa, UniProt P24735); experiment: as above; format: biochemical; details: pH 6.5, 37° C.
# T1 construct: cell-free sonicate of penicillin G-induced culture
# Description: as §3, §4, §5
# [15] = biological target: T2, Staphylococcus aureus 01A400 beta-lactamase (Staphylococcus aureus, UniProt P00807); experiment: as above; format: biochemical; details: pH 6.5, 37° C.; for % Inhibition Beta-Lactam Hydrolysis: listed as R = C6 H5, n = 0
# T2 construct: Cell-free extracts were prepared by sonic treatment; endogenous in cells; host or cells: Staphylococcus aureus 01A400, penicillin G-induced culture, cell-free extract (French press)
# Description: as §3, §4, §5
# [16] = 1:1 mixture with cefazolin, resistant variant
# [17] = 1:1 mixture with ampicillin, resistant variant
# [18] = Staphylococcus aureus, 5, alone, read-out: MIC Alone
# [19] = pH 6.5, Ampicillin 33 μM, inhibitor 66 μM
# T2 sequence (P00807 25-281): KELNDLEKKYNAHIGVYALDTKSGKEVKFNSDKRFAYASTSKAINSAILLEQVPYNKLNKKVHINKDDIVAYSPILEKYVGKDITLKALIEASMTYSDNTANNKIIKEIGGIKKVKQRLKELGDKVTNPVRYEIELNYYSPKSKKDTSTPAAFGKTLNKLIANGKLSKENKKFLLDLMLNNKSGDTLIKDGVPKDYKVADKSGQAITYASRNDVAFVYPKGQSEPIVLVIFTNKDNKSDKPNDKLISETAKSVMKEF
# Sequence of Enterobacter cloacae 67B009 beta-lactamase (P05364 21-381): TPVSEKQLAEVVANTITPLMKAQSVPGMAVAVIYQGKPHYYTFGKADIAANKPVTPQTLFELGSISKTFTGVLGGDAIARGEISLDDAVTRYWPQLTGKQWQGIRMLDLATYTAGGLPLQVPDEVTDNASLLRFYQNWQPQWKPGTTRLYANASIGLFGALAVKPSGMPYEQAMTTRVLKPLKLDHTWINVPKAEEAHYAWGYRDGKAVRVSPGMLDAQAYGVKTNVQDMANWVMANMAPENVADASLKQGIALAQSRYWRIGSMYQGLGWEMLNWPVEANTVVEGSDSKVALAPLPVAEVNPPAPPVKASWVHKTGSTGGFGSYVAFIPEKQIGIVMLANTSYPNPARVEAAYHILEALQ
# T1 sequence (P24735 27-397): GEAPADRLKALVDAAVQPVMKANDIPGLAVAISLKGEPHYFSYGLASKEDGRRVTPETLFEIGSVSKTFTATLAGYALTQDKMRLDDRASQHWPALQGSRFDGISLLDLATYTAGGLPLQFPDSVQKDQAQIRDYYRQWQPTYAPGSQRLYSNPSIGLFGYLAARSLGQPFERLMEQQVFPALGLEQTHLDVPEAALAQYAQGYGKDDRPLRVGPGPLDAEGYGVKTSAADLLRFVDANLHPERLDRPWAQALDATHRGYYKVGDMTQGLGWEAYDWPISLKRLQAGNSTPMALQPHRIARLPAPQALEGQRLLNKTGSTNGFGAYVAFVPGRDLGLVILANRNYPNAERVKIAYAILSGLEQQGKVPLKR
smiles,measurement,setting,value
CC1(C)S[C@@H]2[C@H](OS(=O)(=O)Cc3ccccc3)C(=O)N2[C@H]1C(=O)O [Sodium 6-Beta-(Alpha-Toluenesulfonyloxy)penicillanate],MIC with Ampicillin,[1],100 µg/mL
same,Response with Ampicillin,[1],Synergy
same,MIC with Cefazolin,[1]; 1:1 mixture with cefazolin,100 µg/mL
same,Response with Cefazolin,[1]; 1:1 mixture with cefazolin,Synergy
same,MIC,[1],> 200 µg/mL
same,MIC with Ampicillin,[2]; resistant variant,> 100 µg/mL
same,MIC with Cefazolin,[2]; [16],100 µg/mL and 50 µg/mL
same,MIC,[2],> 200 µg/mL
same,MIC with Ampicillin,[3]; [17],> 100 µg/mL
same,MIC with Cefazolin,[3]; resistant variant,12.5 µg/mL and 6.25 µg/mL
same,MIC,[3],> 200 µg/mL
same,MIC with Ampicillin,[4]; 1:1 mixture with ampicillin,3.12 µg/mL and 1.56 µg/mL
same,MIC,[4],> 200 µg/mL
same,MIC with Ampicillin,[5],> 100 µg/mL
same,Response with Ampicillin,[5],Antagonism
same,MIC with Cefazolin,[5],0.78 µg/mL
same,Response with Cefazolin,[5],Additive
same,MIC,[5],> 200 µg/mL
same,MIC with Ampicillin,[6],3.12 µg/mL
same,MIC with Cefazolin,[6],50 µg/mL
same,Response with Cefazolin,[6],Synergy
same,MIC,[6],> 200 µg/mL
same,MIC with Ampicillin,[7],> 100 µg/mL
same,MIC with Cefazolin,[7],> 100 µg/mL
same,MIC,[7],> 200 µg/mL
same,MIC with Cefazolin,[8]; 1:1 mixture with cefazolin,> 100 µg/mL
same,MIC,[8],> 200 µg/mL
same,Response with Ampicillin,[9]; 1:1 mixture with ampicillin,Additive
same,MIC with Ampicillin,[10],≤ 0.2 µg/mL
same,MIC,"[10]; Staphylococcus aureus, 5, 18 h, read-out: MIC Alone, alone",6.25 µg/mL
same,MIC,[10]; [18],100 µg/mL
same,inhibition at 16.5 µM,"[11]; pH 6.5, Cephalexin 33 μM",100%
same,inhibition at 16.5 µM,"[11]; pH 6.5, Cephaloridine 4 μM",100%
same,inhibition at 4 µM,"[11]; pH 6.5, Cephaloridine 33 μM, inhibitor 4 μM",93.7%
same,inhibition at 16.5 µM,"[11]; pH 6.5, Cephaloridine 33 μM",98.3%
same,inhibition at 16.5 µM,"[11]; pH 6.5, Penicillin G 33 μM",96%
same,inhibition at 66 µM,"[11]; pH 6.5, Penicillin G 33 μM",96%
same,% Inhibition Beta-Lactam Hydrolysis,[12]; inhibitor 16.5 μM,14.0%
same,% Inhibition Beta-Lactam Hydrolysis,[12]; inhibitor 66 μM,15.8%
same,% Inhibition Beta-Lactam Hydrolysis,[13]; inhibitor 16.5 μM,3.0%
same,% Inhibition Beta-Lactam Hydrolysis,[13]; inhibitor 66 μM,0%
same,inhibition at 16.5 µM,"[14]; Cephaloridine 16.5 μM, inhibitor 16.5 μM",92.6%
same,inhibition at 66 µM,"[14]; Penicillin G 33 μM, inhibitor 66 μM",100%
same,% Inhibition Beta-Lactam Hydrolysis,"[15]; Ampicillin 33 μM, inhibitor 16.5 μM",40.3% and 78% and 63.3%
same,% Inhibition Beta-Lactam Hydrolysis,"[15]; Ampicillin 33 μM, inhibitor 66 μM",91.4% and 91%
same,inhibition at 66 µM,[15]; [19],85%
same,inhibition at 66 µM,"[15]; pH 6.5, Preincubation experiment (10 minutes), Ampicillin 33 μM, inhibitor 66 μM",87.2%
"CC1(C)[C@H](C(=O)O)N2C(=O)[C@@H](OS(=O)(=O)Cc3ccccc3)[C@H]2S1(=O)=O [R = C6 H5, n = 2, Sodium 6-beta-(alpha-Toluene-sulfonyloxy)penicillanate Sulfone]",inhibition at 66 µM,"[11]; pH 6.5, Penicillin G 33 μM",0%
same,inhibition at 66 µM,[15]; [19],36.2%
"CC1(C)S[C@@H]2[C@H](OS(C)(=O)=O)C(=O)N2[C@H]1C(=O)O [Sodium Methanesulfonyloxypenicillanate, Sodium 6-beta-(Methanesulfonyloxy)penicillanate]",MIC with Ampicillin,[1],100 µg/mL
same,Response with Ampicillin,[1],Synergy
same,MIC with Cefazolin,[1]; 1:1 mixture with cefazolin,> 100 µg/mL
same,MIC,[1],> 200 µg/mL
same,MIC with Ampicillin,[2]; resistant variant,> 100 µg/mL
same,MIC with Cefazolin,[2]; [16],50 µg/mL
same,Response with Cefazolin,[2]; [16],Antagonism
same,MIC,[2],> 200 µg/mL
same,MIC with Ampicillin,[3]; [17],100 µg/mL
same,Response with Ampicillin,[3]; [17],Additive
same,MIC with Cefazolin,[3]; resistant variant,6.25 µg/mL
same,MIC,[3],> 200 µg/mL
same,MIC with Ampicillin,[4]; 1:1 mixture with ampicillin,3.12 µg/mL
same,Response with Ampicillin,[4]; 1:1 mixture with ampicillin,Antagonism
same,MIC,[4],> 200 µg/mL
same,MIC with Ampicillin,[5],100 µg/mL
same,Response with Ampicillin,[5],Antagonism
same,MIC with Cefazolin,[5],1.56 µg/mL
same,Response with Cefazolin,[5],No effect
same,MIC,[5],> 200 µg/mL
same,MIC with Ampicillin,[6],1.56 µg/mL
same,MIC with Cefazolin,[6],25 µg/mL
same,Response with Cefazolin,[6],Synergy
same,MIC,[6],> 200 µg/mL
same,MIC with Ampicillin,[7],> 100 µg/mL
same,MIC with Cefazolin,[7],> 100 µg/mL
same,MIC,[7],> 200 µg/mL
same,MIC with Ampicillin,[8]; 1:1 mixture with ampicillin,25 µg/mL
same,Response with Ampicillin,[8]; 1:1 mixture with ampicillin,Antagonism
same,MIC with Cefazolin,[8]; 1:1 mixture with cefazolin,100 µg/mL
same,Response with Cefazolin,[8]; 1:1 mixture with cefazolin,Synergy
same,MIC,[8],> 200 µg/mL
same,MIC with Ampicillin,[9]; 1:1 mixture with ampicillin,3.12 µg/mL
same,Response with Ampicillin,[9]; 1:1 mixture with ampicillin,Additive
same,MIC with Cefazolin,[9]; 1:1 mixture with cefazolin,≥ 0.2 µg/mL
same,Response with Cefazolin,[9]; 1:1 mixture with cefazolin,Synergy
same,MIC,"[9]; Staphylococcus aureus, 18 h, read-out: MIC Alone, alone, Table II gives two separate tests",6.25 µg/mL
same,MIC with Ampicillin,[10],≤ 0.2 µg/mL
same,MIC,[10]; [18],12.5 µg/mL
same,inhibition at 66 µM,"[11]; pH 6.5, Penicillin G 33 μM",66.7%
same,% Inhibition Beta-Lactam Hydrolysis,[12]; inhibitor 66 μM,4.4%
same,% Inhibition Beta-Lactam Hydrolysis,[13]; inhibitor 16.5 μM,0%
same,inhibition at 16.5 µM,"[15]; pH 6.5, Ampicillin 33 μM, inhibitor 16.5 μM",100%
same,inhibition at 66 µM,[15]; [19],100%
